In ChEMBL document CHEMBL1139638, “Synthesis and biological evaluation of chalcones and their derived pyrazoles as potential cytotoxic agents” (Bioorg Med Chem Lett, 2005):
pIC50: −log10 of the molar value. Where “and” joins values, the source holds several entries; their conditions need not be identical. Equal values may be shown once.

Assays:
HOP-62 = assay: Antiproliferative activity against human cancer HOP-62 cell line; assay type: functional, cell-based
SNB-78 = assay: Antiproliferative activity against human cancer SNB-78 cell line; assay type: functional, cell-based
DU-145 = assay: Antiproliferative activity against human cancer DU-145 cell line; assay type: functional, cell-based
HEp-2 = assay: Antiproliferative activity against human cancer Hep-2 cell line; assay type: functional, cell-based
SiHa = assay: Antiproliferative activity against human SIHA cell line; assay type: functional, cell-based
HT-29 = assay: Antiproliferative activity against Colon cancer HT-29 cell line; assay type: functional, cell-based, Homo sapiens
A549 = assay: Antiproliferative activity against human cancer A-549 cell line; assay type: functional, cell-based
SK-OV-3 = assay: Antiproliferative activity against human cancer SKOV-3 cell line; assay type: functional, cell-based
HCT-15 = assay: Antiproliferative activity against human colon cancer HCT-15 cell line; assay type: functional, cell-based
SW-620 [1] = assay: Inhibitory concentration against human colon cancer SW-620 cell line; assay type: functional, cell-based
PC-3 = assay: Antiproliferative activity against prostate cancer PC-3 cell line; assay type: functional, cell-based, Homo sapiens
OVCAR-5 = assay: Antiproliferative activity against human cancer OVCAR-5 cell line; assay type: functional, cell-based
SW-620 [2] = assay: Antiproliferative activity against colon cancer SW-620 cell line; assay type: functional, cell-based; details: Homo sapiens

Row | Structure (SMILES) | pIC50 (DU-145; Homo sapiens, DU-145) | pIC50 (HT-29; Homo sapiens, HT-29) | pIC50 (A549; Homo sapiens, A549) | pIC50 (HCT-15) | pIC50 (SW-620 [1]; Homo sapiens, SW-620) | pIC50 (PC-3; Homo sapiens, PC-3) | pIC50 (OVCAR-5; Homo sapiens, OVCAR-5) | pIC50 (HOP-62; Homo sapiens, HOP-62) | pIC50 (SNB-78; Homo sapiens, SNB-78) | pIC50 (HEp-2) | pIC50 (SiHa; Homo sapiens, SiHa) | also measured
1 | COc1ccc(/C=C/C(=O)c2cc(OC)c(OC)c(OC)c2)cc1OC | 5.04 | 5.18 | 5.16 | 5.10 | 5.24 | 5.11 | 5.08 | 5.09 | 4.64 | 5.21 | 5.03 | pIC50 (SK-OV-3): 5.22
2 | COc1ccc(-c2cc(-c3cc(OC)c(OC)c(OC)c3)nn2C(C)=O)cc1OC | – | 4.98 | 5.00 | 4.80 | 4.79 | – | 4.78 | 4.66 | – | – | 4.26 | –
3 | COc1cc(C2=NNC(c3ccc(F)cc3)C2O)cc(OC)c1OC (stereo not drawn) | – | 5.22 | 5.24 | 5.07 | 5.23 | – | 5.15 | 5.18 | – | – | – | –
4 | COc1ccc(-c2cc(-c3cc(OC)c(OC)c(OC)c3)[nH]n2)cc1 | 4.62 | – | – | – | 5.29 | 4.80 | 5.02 | – | – | – | 4.80 | pIC50 (HOP-62; hop-62): 5.32 and 6.19; pIC50 (SNB-78; snb-78): 4.68 and 4.30; pIC50 (DU-145; du-145): 4.57; pIC50 (SiHa; siha): 4.84; pIC50 (HT-29; ht-29): 5.53 and 6.21; pIC50 (A549; a549): 5.36 and 6.00; pIC50 (SW-620 [1]; sw-620): 5.47; pIC50 (PC-3; pc-3): 4.96; pIC50 (OVCAR-5; ovcar-5): 5.11
5 | COc1cc(C(=O)/C=C/c2ccc3c(c2)OCO3)cc(OC)c1OC | 4.70 | – | – | 4.63 | – | 4.93 | 5.25 | 5.02 | 4.78 | 5.00 | 4.89 | –
6 | COc1cc(C2=NNC(c3ccc4c(c3)OCO4)C2O)cc(OC)c1OC (stereo not drawn) | 4.46 | 5.23 | 5.17 | – | 5.17 | 4.46 | 5.17 | 4.69 | 4.27 | 4.40 | 4.37 | –
7 | COc1cc(C2=NNC(c3cc(OC)c(OC)c(OC)c3)C2O)cc(OC)c1OC (stereo not drawn) | 4.03 | 5.13 | 4.81 | 5.08 | 4.87 | 3.97 | 4.69 | 4.69 | – | – | 4.08 | –
8 | COc1ccc(C2NN=C(c3cc(OC)c(OC)c(OC)c3)C2O)cc1OC (stereo not drawn) | – | 5.07 | 5.00 | 4.92 | 5.06 | – | 5.06 | 4.97 | – | – | – | –
9 | COc1cc(/C=C/C(=O)c2ccccc2)cc(OC)c1OC | – | 4.92 | 5.05 | 4.80 | 5.07 | – | – | 4.78 | – | 4.93 | 4.68 | pIC50 (SK-OV-3): 4.25
10 | COc1cc(C(=O)/C=C/c2ccc(F)cc2)cc(OC)c1OC | 4.88 | – | – | 4.93 | – | 4.93 | 4.74 | 4.61 | 4.86 | 5.00 | 5.10 | –
11 | COc1cc(C(=O)/C=C/c2ccc(Cl)cc2)cc(OC)c1OC | 4.55 | – | – | 4.62 | – | 4.62 | 4.77 | 4.57 | 4.59 | 4.92 | 4.40 | –
12 | COc1cc(-c2nn(C(C)=O)c(-c3ccc4c(c3)OCO4)c2OC(C)=O)cc(OC)c1OC | 4.32 | 4.81 | – | 5.05 | – | 4.74 | – | 4.73 | 4.48 | 4.21 | 4.24 | pIC50 (SK-OV-3): 4.41
13 | COc1cc(C(=O)/C=C/c2ccccc2)cc(OC)c1OC | 4.60 | 4.84 | 4.67 | 5.06 | – | 4.39 | 5.05 | 4.69 | 4.64 | 5.12 | 4.44 | pIC50 (SK-OV-3): 4.68; pIC50 (SW-620 [2]): 4.80
14 | COc1cccc(C2NN=C(c3cc(OC)c(OC)c(OC)c3)C2O)c1 (stereo not drawn) | – | 5.23 | 5.14 | 5.11 | 5.13 | 4.55 | 5.15 | 5.09 | – | – | – | –
15 | COc1cc(C2=NNC(c3ccc(Cl)cc3)C2O)cc(OC)c1OC (stereo not drawn) | – | 4.96 | 4.82 | 5.02 | 5.08 | 4.46 | 5.06 | 4.69 | – | – | 4.25 | –
16 | COc1cc(C(=O)/C=C/c2cc(OC)c(OC)c(OC)c2)ccc1O | – | 4.70 | 4.72 | 5.11 | – | – | – | 4.69 | – | 5.22 | 4.39 | –
17 | COc1cc(-c2cc(-c3ccc4c(c3)OCO4)[nH]n2)cc(OC)c1OC | 5.07 | 5.22 | 5.05 | 4.81 | 5.03 | 5.02 | 4.48 | 4.87 | 4.13 | 4.47 | 5.00 | –

Further lines, with some results ahead:

Row | pIC50 (DU-145; Homo sapiens, DU-145) | pIC50 (HT-29; Homo sapiens, HT-29) | pIC50 (A549; Homo sapiens, A549) | pIC50 (HCT-15) | pIC50 (SW-620 [1]; Homo sapiens, SW-620) | pIC50 (PC-3; Homo sapiens, PC-3) | pIC50 (OVCAR-5; Homo sapiens, OVCAR-5) | Structure (SMILES) | pIC50 (HOP-62; Homo sapiens, HOP-62) | pIC50 (SNB-78; Homo sapiens, SNB-78) | pIC50 (HEp-2) | pIC50 (SiHa; Homo sapiens, SiHa) | also measured
18 | – | – | – | 5.18 | – | – | 5.03 | COc1cc(/C=C/C(=O)c2cc(OC)c(OC)c(OC)c2)cc(OC)c1OC | 5.00 | – | 5.11 | 5.07 | –
19 | – | 5.09 | 4.80 | 5.19 | 5.30 | – | 5.06 | COc1cc(-c2cc(-c3ccc(Cl)cc3)[nH]n2)cc(OC)c1OC | 4.91 | 4.85 | – | – | –
20 | – | 6.02 | 5.97 | 6.02 | 5.57 | 4.82 | 4.89 | COc1ccc(C2NN=C(c3cc(OC)c(OC)c(OC)c3)C2O)cc1 (stereo not drawn) | 6.03 | – | 5.11 | 4.70 | –
21 | 4.45 | 5.25 | 5.12 | 5.22 | 5.00 | 4.87 | 5.00 | COc1cc(-c2cc(-c3cc(OC)c(OC)c(OC)c3)[nH]n2)cc(OC)c1OC | – | 4.66 | 5.19 | 4.60 | –
22 | 5.41 | 5.32 | 5.42 | 6.32 | 5.23 | 5.05 | 5.19 | COc1cc(-c2cc(-c3ccc(F)cc3)[nH]n2)cc(OC)c1OC | 6.25 | 4.65 | 5.42 | 5.97 | –
23 | 4.83 | 5.15 | 5.09 | 5.31 | – | 4.93 | 5.05 | COc1cccc(C(=O)/C=C/c2cc(OC)c(OC)c(OC)c2)c1 | 5.00 | 5.00 | 4.86 | 4.96 | –
24 | – | 6.33 | 6.06 | 6.60 | 6.64 | 5.58 | 5.36 | COc1ccc(-c2cc(-c3cc(OC)c(OC)c(OC)c3)[nH]n2)cc1OC | 6.03 | – | 5.08 | 5.44 | –
25 | – | 4.98 | 4.81 | 5.11 | – | – | – | COc1cc(C(=O)/C=C/c2cc(OC)c(OC)c(OC)c2)ccc1OC(C)=O | 5.04 | – | 5.16 | 4.48 | pIC50 (SK-OV-3): 5.08
26 | – | 5.08 | 4.92 | 5.11 | – | – | – | COc1cc(/C=C/C(=O)c2ccc(OC(C)=O)cc2)cc(OC)c1OC | 4.25 | – | 4.88 | 4.88 | –
